Where two headings read alike, the source gives them in different places.
Experiments:
[1] = test system: MelJuSo melanoma cells; assay: MTS cell viability assay, MelJuSo; type: cell-based; conditions: Homo sapiens, MEL-JUSO, 24 h, read-out: IC50
Protocol: (§1) Cells were cultured at indicated densities for 24 h, medium was removed and the incubation was continued in a fresh culture medium containing various GC2 or DTIC concentrations. In control experiments, cells were grown in a culture medium containing GC2 buffer.
(§2) The standard […] (MTS)-3-(4,5-dimethylthiazol-2-yl)-5-(3-carboxymethoxyphenyl)-2-(4-sulphophenyl)-2H-tetrazolium inner salt solution assay was performed in order to examine the cytotoxic/cytostatic effect of GC2 on melanoma cells. Briefly, 7.5×10^3 cells were seeded in 96-well microtiter plates (Nunc). After an overnight incubation, serial dilutions of GC2 or DTIC were added in triplicate to a final volume of 100 μl. The blank was represented by a culture medium without cells containing the highest GC2 or DTIC concentration. After 24 h of incubation 20 μl MTS was added to each well and all samples were incubated for 3 h at 37° C. An absorbance of each well was read at 450 nm in a microplate reader. A percentage of cell viability was calculated considering that 100% cell viability was represented by an absorbance of untreated samples […]. Alternatively, the number of viable cells was determined by Trypan blue exclusion test. Melanoma cells treated with GC2 were trypsinized and cells negative for blue staining (viable cells) were counted using a hemocytometer. […]

[2] = test system: MNT-1 melanoma cells; assay: MTS cell viability assay, MNT-1; type: cell-based; conditions: Homo sapiens, MNT-1, 24 h, read-out: IC50
Protocol: as §1, §2

[3] = test system: SKMel28 melanoma cells; assay: MTS cell viability assay, SKMel28; type: cell-based; conditions: Homo sapiens, SK-MEL-28, SKMel28, 24 h, read-out: IC50
Protocol: as §1, §2

[4] = test system: B16F10 melanoma cells; assay: MTS cell viability assay, B16F10; type: cell-based, murine; conditions: Mus musculus, B16-F10, B16F10, 24 h, read-out: IC50
Protocol: as §1, §2

[5] = test system: B16D2 melanoma cells; assay: MTS cell viability assay, B16D2; type: cell-based; conditions: B16D2, 24 h, read-out: IC50
Protocol: as §1, §2

[6] = read-out: IC50 doses reported by other in vitro studies, cited from earlier work

Row | SMILES | IC50 [1] | IC50 [2] | IC50 [3] | IC50 [4] | IC50 [5] | IC50 ([6]; literature data (Lev et al. 2004)) | IC50 ([6]; literature data)
1 | CN(C)N=Nc1[nH]cnc1C(N)=O [DTIC, 5-(3,3-dimethyl-1-triazeno)-imidazole-4-carboxamide, reference compound] | 3000 to 4000 µM | 3000 to 4000 µM | 3000 to 4000 µM | 3000 to 4000 µM | 3000 to 4000 µM | 1000 µM | –
2 | CCCCCCCCCCCCC/C=C/[C@@H](O)[C@H](CO)NC(C)=O [C2-ceramide] | – | – | – | – | – | – | 100 µM

— patent US8957106B2, “Iminosugar treatment of tumors” (The Chancellor, Masters and Scholars of the University of …, priority 2007, dated 2015)
